Our source for the Kd values is article PMC4450062, “A Membrane-bound eIF2 Alpha Kinase Located in Endosomes Is Regulated by Heme and Controls Differentiation and ROS Levels in Trypanosoma cruzi” (PLoS Pathogens, 2015).

The target of this assay is T1, GST-TcK2 (kinase domain of TcK2, T. cruzi K2) (Trypanosoma cruzi, UniProt Q4E5B6).
T1 construct: gene Tc00.1047053506559.129; N-terminal GST fusion (pGEX5X-1), GST kept, 68 kDa; E. coli BL21; transmembrane and N-terminal domains absent
T1 sequence (Q4E5B6 638-984): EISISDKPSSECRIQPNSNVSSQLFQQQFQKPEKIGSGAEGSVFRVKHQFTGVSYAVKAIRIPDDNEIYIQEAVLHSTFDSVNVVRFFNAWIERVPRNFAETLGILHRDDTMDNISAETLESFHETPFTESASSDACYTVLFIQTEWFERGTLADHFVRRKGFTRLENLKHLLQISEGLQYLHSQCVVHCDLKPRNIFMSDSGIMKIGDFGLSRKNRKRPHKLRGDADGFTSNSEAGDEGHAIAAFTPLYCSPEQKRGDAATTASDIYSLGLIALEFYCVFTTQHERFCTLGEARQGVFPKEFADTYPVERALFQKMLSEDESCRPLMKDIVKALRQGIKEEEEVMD
The assay is described as follows: Soret absorbance titration at […] nm. The class given is binding. As to conditions: 0.1 M Tris-HCl pH 7.4, 50 mM NaCl, 25 °C, 30 min incubation; 5 μg/ml protein; GST alone shows no Soret band; read-out: Kd^app.

Consider `C=CC1=C(C)C2=Cc3c(C=C)c(C)c4[n]3[Fe]([Cl])[n]3c(c(C)c(CCC(=O)O)c3=CC3=NC(=C4)C(C)=C3CCC(=O)O)=CC1=N2` [hemin], for which the Kd amounted to 2800 ± 600 nM.
